Test results reported in article PMC6143625, “A high throughput screen for next-generation leads targeting malaria parasite transmission” (Nature Communications, 2018).

Key:
[1] = system: P. falciparum stage V female gametocytes (female gamete formation); experiment: P. falciparum dual gamete formation assay (Pf DGFA), female readout (Pfs25 expression), 48 h carry-over format; type: cell-based, Plasmodium falciparum NF54; conditions: primary screen, 2 uM, 48 h incubation, single replicate
[2] = system: P. falciparum stage V male gametocytes (male gamete formation); experiment: P. falciparum dual gamete formation assay (Pf DGFA), male readout (exflagellation), 48 h carry-over format; type: cell-based, Plasmodium falciparum NF54; conditions: primary screen, 2 uM, 48 h incubation, single replicate

## CCc1ccc(CN(C)C(=O)C2CC(=O)N(c3cccc(O)c3)C2)nc1 (stereo not shown) [DDD01246796]
[1]
  %Inhibition Female @2uM: <30%
[2]
  %Inhibition Male @2uM: 126.32%

## C=C1C(C)(C)[C@@H]2CC[C@]1(C(=O)N1CCC(n3cc(CCO)nn3)CC1)C2 [DDD01246808]
[1]
  %Inhibition Female @2uM: 30.26%
[2]
  %Inhibition Male @2uM: <30%

## COCCN(C)CCN1CC2(CCN(C3CCSC3)CC2)OC1=O (stereo not shown) [DDD01246844]
[1]
  %Inhibition Female @2uM: <30%
[2]
  %Inhibition Male @2uM: 176.84%

## Cc1cccc(C(=O)N2CCCC(c3nccn3Cc3cscn3)C2)n1 (stereo not shown) [DDD01247041]
[1]
  %Inhibition Female @2uM: <30%
[2]
  %Inhibition Male @2uM: 160.00%

## Cc1ccccc1OCC(=O)N1CCOC2(CNCCOC2)C1 (stereo not shown) [DDD01247077]
[1]
  %Inhibition Female @2uM: <30%
[2]
  %Inhibition Male @2uM: 174.44%

## COc1cccc(Cn2c(C)c(C)oc2=O)c1OC [DDD01247327]
[1]
  %Inhibition Female @2uM: 30.45%
[2]
  %Inhibition Male @2uM: <30%

## CN(C)CC(=O)NC1CC(C)(C)Cc2nc(C(C)(C)C)ncc21 (stereo not shown) [DDD01247509]
[1]
  %Inhibition Female @2uM: 43.65%
[2]
  %Inhibition Male @2uM: <30%

## c1cc(CN2CCC(c3ccncc3)CC2)cc(Cn2cccn2)c1 [DDD01247553]
[1]
  %Inhibition Female @2uM: <30%
[2]
  %Inhibition Male @2uM: 75.89%

## CCNC(=O)[C@@H]1C[C@H](N)CN1C(=O)C1(c2ccc(OC)cc2)CCCC1 [DDD01247775]
[1]
  %Inhibition Female @2uM: 31.68%
[2]
  %Inhibition Male @2uM: <30%

## Cc1ccc(CN(Cc2ccncc2)C2CCN(C)CC2)s1 [DDD01247850]
[1]
  %Inhibition Female @2uM: 35.49%
[2]
  %Inhibition Male @2uM: <30%

## CSc1nccc(N2CCC(=O)N(CC3CC3)C(C(C)C)C2)n1 (stereo not shown) [DDD01248006]
[1]
  %Inhibition Female @2uM: <30%
[2]
  %Inhibition Male @2uM: 91.33%

## CCn1c(C2CCCN(C(=O)c3ccc[nH]3)C2)nn(CCN(C)C)c1=O (stereo not shown) [DDD01248239]
[1]
  %Inhibition Female @2uM: <30%
[2]
  %Inhibition Male @2uM: 83.64%

## CCc1ccc(CN(C)Cc2cnc(S(=O)(=O)CC)n2CCOC)cc1 [DDD01248618]
[1]
  %Inhibition Female @2uM: <30%
[2]
  %Inhibition Male @2uM: 143.16%

## O=C(O)C1(Oc2ccccc2F)CCN(C/C=C/c2ccco2)CC1 [DDD01248641]
[1]
  %Inhibition Female @2uM: 35.65%
[2]
  %Inhibition Male @2uM: <30%

## CN(C)C(=O)NCc1cc2n(n1)CCCN(CC1CCCNC1)C2 (stereo not shown) [DDD01248722]
[1]
  %Inhibition Female @2uM: <30%
[2]
  %Inhibition Male @2uM: 166.37%

## Cc1cccc2[nH]c(C3CCN(C(=O)c4ccc[nH]4)CC3)nc12 [DDD01248889]
[1]
  %Inhibition Female @2uM: <30%
[2]
  %Inhibition Male @2uM: 179.77%

## Cc1nc2cc(OCc3nc(C(=O)NC(C)(CO)CO)co3)ccc2s1 [DDD01248928]
[1]
  %Inhibition Female @2uM: <30%
[2]
  %Inhibition Male @2uM: 109.47%

## Cc1cccc(N2CCC(N3CCCC4(CNC(=O)O4)C3)CC2)c1C (stereo not shown) [DDD01248972]
[1]
  %Inhibition Female @2uM: 36.41%
[2]
  %Inhibition Male @2uM: <30%

## CCCn1cc(C(=O)NC2CCC(n3cnnc3)CC2)c(C)n1 (stereo not shown) [DDD01249122]
[1]
  %Inhibition Female @2uM: <30%
[2]
  %Inhibition Male @2uM: 90.61%

## COc1cccc2c1OCC(C(=O)N1CCSCC1)C2 (stereo not shown) [DDD01249304]
[1]
  %Inhibition Female @2uM: <30%
[2]
  %Inhibition Male @2uM: 51.06%

## O=C(c1ccccc1)N1CCCC(Nc2ccc(F)cc2)C1 (stereo not shown) [DDD01249390]
[1]
  %Inhibition Female @2uM: <30%
[2]
  %Inhibition Male @2uM: 180.87%

## Cc1noc(CN(C)C(=O)c2[nH]nc(N)c2-c2ccccc2)n1 [DDD01249532]
[1]
  %Inhibition Female @2uM: 61.65%
[2]
  %Inhibition Male @2uM: <30%

## Cc1nn(C)c2nc(N(C)CC3CCN(CC(C)C)C3)sc12 (stereo not shown) [DDD01249587]
[1]
  %Inhibition Female @2uM: 47.43%
[2]
  %Inhibition Male @2uM: <30%

## COc1cccc(OC2CN(C(=O)c3sccc3C)C2)c1 [DDD01250000]
[1]
  %Inhibition Female @2uM: 64.75%
[2]
  %Inhibition Male @2uM: <30%

## CN1CCC(N(C)C[C@H]2CC[C@@H](Cc3ccc4occc4c3)O2)CC1 [DDD01250070]
[1]
  %Inhibition Female @2uM: 33.03%
[2]
  %Inhibition Male @2uM: <30%

## CCc1nn(C)c(Cl)c1CN1CCCC2(CC1)CN(C)C(=O)O2 (stereo not shown) [DDD01250081]
[1]
  %Inhibition Female @2uM: 32.84%
[2]
  %Inhibition Male @2uM: <30%
